Measurements from the NIST ThermoML archive (doi:10.1016/j.fluid.2010.02.010).
Numbers after ± are expanded uncertainties.

Tests used:
[1] = excess molar enthalpy (molar enthalpy of mixing); xn = mol fraction of the nth substance listed; settings: 413.15 K, 101 kPa, Liquid, Flow calorimetry
[2] = activity coefficient (dimensionless); of the first substance listed, at infinite dilution; xn = mol fraction of the nth substance listed; settings: 101 kPa, Liquid, x1 = 0
[3] = 101.33 kPa, Liquid, Vibrating tube method

CCCCn1cc[n+](C)c1.O=S(=O)([O-])C(F)(F)F [1-butyl-3-methylimidazolium trifluoromethanesulfonate] + CCCCCC
[1]
Settings | excess molar enthalpy [kcal/mol]
x2 = 0.0413 | 0.0571 ± 0.00127
x2 = 0.1199 | 0.0756 ± 0.00167
x2 = 0.1573 | 0.0722 ± 0.0016
x2 = 0.1936 | 0.0687 ± 0.00153
x2 = 0.2287 | 0.0655 ± 0.00146
x2 = 0.2958 | 0.0595 ± 0.00134
x2 = 0.359 | 0.0545 ± 0.00122
x2 = 0.4186 | 0.0494 ± 0.00112
x2 = 0.5283 | 0.0413 ± 0.000956
x2 = 0.6269 | 0.0317 ± 0.000741
x2 = 0.7159 | 0.0248 ± 0.000598
x2 = 0.8344 | 0.0148 ± 0.000406
x2 = 0.938 | 0.00684 ± 0.000263

CCCCCC [hexane] + CCCCCCCCn1cc[n+](C)c1.O=S(=O)([O-])C(F)(F)F
[2], dilutor technique
Settings | activity coefficient
303.15 K | 7.25 ± 0.36
323.16 K | 7.15 ± 0.36
333.18 K | 7.09 ± 0.35

CCCCCC [hexane] + CCCCn1cc[n+](C)c1.O=S(=O)([O-])C(F)(F)F
activity coefficient, [2]
Settings | 303.16 K | 303.45 K | 313.15 K | 313.19 K | 323.14 K | 323.16 K | 333.15 K | 333.22 K
Chromatography | – | 29.8 ± 2 | 28.4 ± 1.9 | – | 26.5 ± 1.8 | – | 24.8 ± 1.7 | –
Dilutor technique | 29 ± 1.4 | – | – | 27.7 ± 1.4 | – | 25.9 ± 1.3 | – | 24.5 ± 1.2

CCCCCCCC [octane] + CCCCCCCCn1cc[n+](C)c1.O=S(=O)([O-])C(F)(F)F
[2], dilutor technique
Settings | activity coefficient
303.16 K | 12.6 ± 0.63
313.14 K | 12.2 ± 0.61
323.14 K | 12 ± 0.6
333.11 K | 11.7 ± 0.58

CCCCCCC [heptane] + CCCCCCCCn1cc[n+](C)c1.O=S(=O)([O-])C(F)(F)F
[2], dilutor technique
Settings | activity coefficient
303.16 K | 9.59 ± 0.48
313.14 K | 9.42 ± 0.47
323.14 K | 9.26 ± 0.46
333.11 K | 9.06 ± 0.45

CCCCC [pentane] + CCCCn1cc[n+](C)c1.O=S(=O)([O-])C(F)(F)F
[2], Dilutor technique
Settings | activity coefficient
313.19 K | 18 ± 0.9
323.16 K | 17.5 ± 0.87
333.22 K | 16.8 ± 0.84

C=CCCCC [hex-1-ene] + CCCCCCCCn1cc[n+](C)c1.O=S(=O)([O-])C(F)(F)F
[2], dilutor technique
Settings | activity coefficient
303.13 K | 4.68 ± 0.23
313.13 K | 4.61 ± 0.23
323.16 K | 4.57 ± 0.23
333.16 K | 4.53 ± 0.23

C=CCCCC [hex-1-ene] + CCCCCCn1cc[n+](C)c1.O=S(=O)([O-])C(F)(F)F
[2], dilutor technique
Settings | activity coefficient
303.18 K | 7.4 ± 0.37
313.15 K | 7.23 ± 0.36
323.16 K | 7.03 ± 0.35
333.15 K | 6.86 ± 0.34

C=CCCCCC [1-heptene] + CCCCCCCCn1cc[n+](C)c1.O=S(=O)([O-])C(F)(F)F
[2], dilutor technique
Settings | activity coefficient
303.21 K | 6.11 ± 0.31
313.15 K | 6.03 ± 0.3
323.14 K | 5.97 ± 0.3
333.12 K | 5.89 ± 0.29

CCCCCCCC [octane] + CCCCCCn1cc[n+](C)c1.O=S(=O)([O-])C(F)(F)F
activity coefficient, [2]
Settings | 303.14 K | 303.16 K | 313.15 K | 313.18 K | 323.15 K | 323.16 K | 333.14 K
Chromatography | 27.2 ± 1.9 | – | 25.8 ± 1.8 | – | 24.8 ± 1.7 | – | 23.8 ± 1.6
dilutor technique | – | 27.1 ± 1.4 | – | 25.5 ± 1.3 | – | 24.6 ± 1.2 | 23.4 ± 1.2

CCCCCCC [heptane] + CCCCCCn1cc[n+](C)c1.O=S(=O)([O-])C(F)(F)F
[2], dilutor technique
Settings | activity coefficient
303.16 K | 19.2 ± 0.96
313.18 K | 18 ± 0.9
323.16 K | 17.4 ± 0.87
333.14 K | 16.6 ± 0.83

C=CCCCCCC [oct-1-ene] + CCCCCCCCn1cc[n+](C)c1.O=S(=O)([O-])C(F)(F)F
[2], dilutor technique
Settings | activity coefficient
303.21 K | 8 ± 0.4
313.15 K | 7.86 ± 0.39
323.14 K | 7.79 ± 0.39
333.12 K | 7.66 ± 0.38

CCCCCCC [heptane] + CCCCn1cc[n+](C)c1.O=S(=O)([O-])C(F)(F)F
activity coefficient, [2]
Settings | 303.12 K | 303.45 K | 313.15 K | 323.12 K | 323.14 K | 333.15 K | 333.21 K
Chromatography | – | 45 ± 3.1 | 42.4 ± 2.9 | – | 39.8 ± 2.7 | 37 ± 2.5 | –
Dilutor technique | 45 ± 2.2 | – | 42.3 ± 2.1 | 39.8 ± 2 | – | – | 36.9 ± 1.9

CCCCCCCCn1cc[n+](C)c1.O=S(=O)([O-])C(F)(F)F [1-octyl-3-methylimidazolium trifluoromethanesulfonate]
[3]
Settings | mass density [kg/m3]
293.15 K | 1197 ± 0.2
298.15 K | 1193.2 ± 0.2
303.15 K | 1189.5 ± 0.2
308.14 K | 1185.8 ± 0.2
313.15 K | 1182.1 ± 0.2
318.15 K | 1178.4 ± 0.2
323.14 K | 1174.7 ± 0.2
328.14 K | 1171.1 ± 0.2
333.14 K | 1167.4 ± 0.2
338.14 K | 1163.7 ± 0.2
343.15 K | 1160.1 ± 0.2
348.15 K | 1156.5 ± 0.2
353.14 K | 1152.9 ± 0.2

CCCCn1cc[n+](C)c1.O=S(=O)([O-])C(F)(F)F [1-butyl-3-methylimidazolium trifluoromethanesulfonate] + C=CCCCC
[1]
Settings | excess molar enthalpy [kcal/mol]
x2 = 0.0431 | 0.0234 ± 0.000574
x2 = 0.0845 | 0.0443 ± 0.001
x2 = 0.1632 | 0.0602 ± 0.00134
x2 = 0.2004 | 0.0576 ± 0.00129
x2 = 0.2364 | 0.0555 ± 0.00124
x2 = 0.3049 | 0.0508 ± 0.00115
x2 = 0.3691 | 0.0468 ± 0.00105
x2 = 0.4292 | 0.0423 ± 0.000956
x2 = 0.5391 | 0.0335 ± 0.000789
x2 = 0.637 | 0.0269 ± 0.000645
x2 = 0.7247 | 0.0206 ± 0.000526
x2 = 0.8404 | 0.0125 ± 0.000359
x2 = 0.9405 | 0.00488 ± 0.000215
